# Where two headings read alike, the source gives them in different places.
# How the values were obtained:
# [1] = Dissociation constant in water (pKa value) of amine; assay type: physicochemical
# Source text: If more than one type of amine group is present in the molecule then the relevant pKa value is that of the most basic amine group.
# [2] = Relative water solubility of amine; conditions: amine base
# [3] = amine base, in water, read-out: pKa
Compound,"pKa [1, 3]",Rel. W. Sol [2],pKa ([1]; water)
"C=C(C)C(=O)OCCN(C)C [DMAEMA, dimethylaminoethylmethacrylate]",5.4,high,
Nc1ccccc1 [aniline],,insoluble,
NCCCCCCCCCCCCN [dodecylene diamine],,insoluble,11.8
CCN [ethylamine],,high,
NCCN [ethylene diamine],,high,
Cc1ccccc1N [o-toluidine],6,insoluble,
vinyl pyridine,,,5.4
